Experimental data: patent US20140235587A1, “SUBSTITUTED PYRAZOLES AS SPHINGOSINE RECEPTOR MODULATORS” (Allergan, Inc., priority 2013, published 2014)

Biological target: T1, human S1P1 receptor (Homo sapiens, UniProt P21453)
T1 construct: expressed in transfected cells; membranes used
Test: GTP γ35S binding assay for S1P1 activity
Type: biochemical
Details: membranes of cells stably expressing S1P1; test compounds 0.08 to 5,000 nM; 30 min at 25° C.; read-out: S1P1 EC50 (Activity potency: S1P1 receptor from GTP γ35S)
Experimental: Compounds were tested for S1P1 activity using the GTP γ^35S binding assay. These compounds may be assessed for their ability to activate or block activation of the human S1P1 receptor in cells stably expressing the S1P1 receptor. GTP γ^35S binding was measured in the medium containing (mM) HEPES 25, pH 7.4, MgCl2 10, NaCl 100, dithitothreitol 0.5, digitonin 0.003%, 0.2 nM GTP γ^35S, and 5 μg membrane protein in a volume of 150 μl. Test compounds were included in the concentration range from 0.08 to 5,000 nM unless indicated otherwise. Membranes were incubated with 100 μM 5′-adenylylimmidodiphosphate for 30 min, and subsequently with 10 μM GDP for 10 min on ice. Drug solutions and membrane were mixed, and then reactions were initiated by adding GTP γ^35S and continued for 30 min at 25° C. Reaction mixtures were filtered over Whatman GF/B filters under vacuum, and washed three times with 3 mL of ice-cold buffer (HEPES 25, pH7.4, MgCl2 10 and NaCl 100). Filters were dried and mixed with scintillant, and counted for ^35S activity using a β-counter. Agonist-induced GTP γ^35S binding was obtained by subtracting that in the absence of agonist. Binding data were analyzed using a non-linear regression method. In case of antagonist assay, the reaction mixture contained 10 nM S1P in the presence of test antagonist at concentrations ranging from 0.08 to 5000 nM.

T1 sequence (P21453 whole entry): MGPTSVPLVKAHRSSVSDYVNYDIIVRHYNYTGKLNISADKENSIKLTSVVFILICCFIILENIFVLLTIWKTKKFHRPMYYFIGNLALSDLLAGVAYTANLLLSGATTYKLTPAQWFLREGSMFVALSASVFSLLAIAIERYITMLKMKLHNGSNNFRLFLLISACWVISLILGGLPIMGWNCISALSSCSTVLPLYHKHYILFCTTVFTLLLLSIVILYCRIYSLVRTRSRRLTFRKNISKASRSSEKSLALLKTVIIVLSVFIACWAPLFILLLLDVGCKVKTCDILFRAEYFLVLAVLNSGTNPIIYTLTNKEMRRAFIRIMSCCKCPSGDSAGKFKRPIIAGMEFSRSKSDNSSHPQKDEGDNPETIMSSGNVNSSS

EC50 [nM]	Compound
18	CCCN1N=C(c2nc(-c3ccc(CNCCCP(=O)(O)O)cc3)no2)CC1c1ccccc1 (centres unmarked) [Compound 1, [3-({4-[5-(5-phenyl-1-propyl-4,5-dihydro-1H-pyrazol-3-yl)-1,2,4-oxadiazol-3-yl]benzyl}amino)propyl]phosphonic acid]
6.5	CN1N=C(c2nc(-c3ccc(CNCCCP(=O)(O)O)cc3)no2)CC1c1ccccc1 (centres unmarked) [Compound 2, [3-({4-[5-(1-methyl-5-phenyl-4,5-dihydro-1H-pyrazol-3-yl)-1,2,4-oxadiazol-3-yl]benzyl}amino)propyl]phosphonic acid]
25	CCN1N=C(c2nc(-c3ccc(CNCCCP(=O)(O)O)cc3)no2)CC1c1ccccc1 (centres unmarked) [Compound 4, [3-({4-[5-(1-ethyl-5-phenyl-4,5-dihydro-1H-pyrazol-3-yl)-1,2,4-oxadiazol-3-yl]benzyl}amino)propyl]phosphonic acid]
274	CCN1N=C(c2nc(-c3ccc(CNCCC(=O)O)cc3)no2)CC1c1ccccc1 (centres unmarked) [Compound 5, 3-({4-[5-(1-ethyl-5-phenyl-4,5-dihydro-1H-pyrazol-3-yl)-1,2,4-oxadiazol-3-yl]benzyl}amino)propanoic acid]
5.4	CCN1N=C(c2nc(-c3cc(F)c(CNCCCP(=O)(O)O)c(F)c3)no2)CC1c1ccccc1 (centres unmarked) [Compound 6, [3-({4-[5-(1-ethyl-5-phenyl-4,5-dihydro-1H-pyrazol-3-yl)-1,2,4-oxadiazol-3-yl]-2,6-difluorobenzyl}amino)propyl]phosphonic acid]
42	CCN1N=C(c2nc(-c3cc(F)c(CNCCC(=O)O)c(F)c3)no2)CC1c1ccccc1 (centres unmarked) [Compound 7, 3-({4-[5-(1-ethyl-5-phenyl-4,5-dihydro-1H-pyrazol-3-yl)-1,2,4-oxadiazol-3-yl]-2,6-difluorobenzyl}amino)propanoic acid]
11	CCN1N=C(c2nc(-c3ccc(CNCCCP(=O)(O)O)cc3F)no2)CC1c1ccccc1 (centres unmarked) [Compound 8, [3-({4-[5-(1-ethyl-5-phenyl-4,5-dihydro-1H-pyrazol-3-yl)-1,2,4-oxadiazol-3-yl]-3-fluorobenzyl}amino)propyl]phosphonic acid]
49	CCN1N=C(c2nc(-c3ccc(CNCCC(=O)O)cc3F)no2)CC1c1ccccc1 (centres unmarked) [Compound 9, 3-({4-[5-(1-ethyl-5-phenyl-4,5-dihydro-1H-pyrazol-3-yl)-1,2,4-oxadiazol-3-yl]-3-fluorobenzyl}amino)propanoic acid]
2.6	CCc1cc(-c2noc(C3=NN(CC)C(c4ccccc4)C3)n2)ccc1CNCCCP(=O)(O)O (centres unmarked) [Compound 10, [3-({2-ethyl-4-[5-(1-ethyl-5-phenyl-4,5-dihydro-1H-pyrazol-3-yl)-1,2,4-oxadiazol-3-yl]benzyl}amino)propyl]phosphonic acid]
21	CCc1cc(-c2noc(C3=NN(CC)C(c4ccccc4)C3)n2)ccc1CNCCC(=O)O (centres unmarked) [Compound 11, 3-({2-ethyl-4-[5-(1-ethyl-5-phenyl-4,5-dihydro-1H-pyrazol-3-yl)-1,2,4-oxadiazol-3-yl]benzyl}amino)propanoic acid]
65	CCCN1N=C(c2nc(-c3ccc(CNCCC(=O)O)cc3)no2)CC1c1ccccc1 (centres unmarked) [Compound 12, 3-({4-[5-(5-phenyl-1-propyl-4,5-dihydro-1H-pyrazol-3-yl)-1,2,4-oxadiazol-3-yl]benzyl}amino)propanoic acid]
